Activity calls are given as the source filed them.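 The calls were made as follows: active = fitted curve crossing a set activation limit at or below the highest valid dose tested; inconclusive = flat fit at 30 to 70% activation, or poor fit; inactive = the rest, including signal decreases.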
System: D54 ERlucT glycosylation luciferase reporter, luminescence, 24 h
Assay: N-linked glycosylation inhibitors, luciferase reporter, dose response, D54 ERlucT cells, luminescence, cherry-picks (AID 624491);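 also: signal gain reflects blocked N-linked glycosylation of a luciferase reporter; actives raise luciferase signal so AC26 marks activators of the reporter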

SMILES | AC26
O=C(CC1Nc2ccccc2NC1=O)Nc1ccccc1 (configuration not stated) | 4880 nM
O=C(/C=C/c1cn(-c2ccccc2)nc1-c1cccnc1)c1ccco1 | 628 nM
CCOc1cc(NC(=O)CCl)c(OCC)cc1NC(=O)CCl | 1690 nM
O=C(NCCCN1CCOCC1)c1cc(-c2cccs2)on1 | 3670 nM
O=C(Nc1ccncc1)C1CCCN(S(=O)(=O)c2cccc3cccnc23)C1 (configuration not stated) | 579 nM
COc1cc(NC(=O)c2ccccc2OCc2ccccc2)cc(OC)c1OC | 1030 nM
CC(=O)c1cccc(NC(=O)CSc2ncc(C(=O)Nc3ccccc3)c(=O)n2C)c1 | 1350 nM
COc1ccc(OC(=O)N2C/C(=C/c3ccccc3)C(=O)/C(=C\c3ccccc3)C2)cc1 | 299 nM
CCC(C)C(=O)OC1CCC=C2C=CC(C)C(CCC3CC(O)CC(=O)O3)C21 (configuration not stated) | 34.8 nM
CC(=O)/C=C/c1ccccc1Oc1c(F)c(F)nc(F)c1F | 183 nM
CCCOc1ccc2ccccc2c1/C=N/n1c(C)nnc1-n1nc(C)cc1C | 503 nM
CC1(C(=O)NCc2ccccc2)Cc2c(-c3cccc(C(N)=O)c3)ccnc2O1 (configuration not stated) | 2100 nM
O=C(N/N=C/C(Br)=C/c1ccccc1)c1cc(-c2ccco2)[nH]n1 | 5350 nM
C=C(C)[C@@]12OC3(c4ccccc4)O[C@@H]1C1[C@@H]4O[C@]4(CO)[C@@H](O)[C@]4(O)C(=O)C(C)=C[C@H]4[C@@]1(O3)[C@H](C)[C@H]2OC(=O)/C=C/C=C/c1ccccc1 (some centres not stated) | < 1.2 nM
Cc1cc(=O)n2c3c(c4c(cc13)c(CN(C)C)cc(=O)n4C)OC2 | 3030 nM
CSCCOC(=O)c1[nH]c2c(c1C)C(=O)CC(c1ccco1)C2 (configuration not stated) | 526 nM
COc1ccccc1NC1=NC(c2ccc(Cl)cc2)N=C(N)N1 (configuration not stated) | 1370 nM
Nc1nc(CN2CCN(Cc3ccccc3)CC2)nc(Nc2ccc3c(c2)OCCO3)n1 | 699 nM
Cc1ccc(C(=O)NC(=C(Cl)Cl)S(=O)(=O)c2ccc(C)cc2)cc1 | 2550 nM
COc1cc(C2CC(=O)Nc3cc(C)c(C)cc32)cc(OC)c1OC (configuration not stated) | 8880 nM
COc1cc2c(C#N)c(N3CCc4ccccc4C3)nc(N)c2c(N)n1 | 6220 nM
CNc1ncnc(Sc2ccc(Cl)cc2)c1[N+](=O)[O-] | 4540 nM

SMILES | AC26
CC1CCC2(CC1)NC(=O)N(CC(=O)Nc1ccc3c(c1)CCC3)C2=O (configuration not stated) | 826 nM
Cc1ccc(S(=O)(=O)NC2=C(N3CCN(Cc4ccccc4)CC3)C(=O)c3ccccc3C2=O)cc1 | 3810 nM
Cc1cc2[nH]c3ccccc3c2c(C)n1 | 3670 nM
COc1ccc(C2=NOC(COc3ccc4c(C)cc(=O)oc4c3)C2)c(OC)c1 (configuration not stated) | 1070 nM
COc1ccc(N2CCc3c(C)nc4c(OC)cccc4c32)cc1 | 368 nM
Cc1cc([N+](=O)[O-])ccc1Nc1nc2ccccc2n2cnnc12 | 8280 nM
Cc1ccc(-c2nn3c(C)nnc3s2)cc1NCc1c(F)cccc1Cl | 7650 nM
CN(C)CCCN1C(=O)c2cccc3c(Br)ccc(c23)C1=O | 871 nM
NC(=O)N=Nc1c2[nH]c3ccccc3nc-2c2ccccc12 | 1130 nM
CCOc1ccc(N2C(=O)Nc3ccccc3C2(O)C(=O)N2CCN(c3ccccn3)CC2)cc1 (configuration not stated) | 880 nM
CN(C)S(=O)(=O)c1ccc(N2CCCC2)c(C(=O)Nc2ccccc2)c1 | 957 nM
COc1ccc(/C=N/NC(=O)c2sccc2OCc2ccc(F)cc2)cc1OC | 1310 nM
N#Cc1ccc(-c2cccs2)nc1SCc1cccnc1 | 242 nM
Cn1c(SCC(=O)Nc2cccc(F)c2)nc2c([nH]c3ccccc32)c1=O | 5420 nM
Cc1cc(C)nc(/N=C(\N)Nc2ccc(OCCC(C)C)cc2)n1 | 776 nM
CCN1C(=O)c2cccc3c(S(=O)(=O)N4CCC(C)CC4)ccc1c23 | 1720 nM
C[C@@H]1[C@@H](Sc2ccccc2)CC(=O)O[C@@H]1c1ccc(-c2ccccc2)cc1 | 920 nM
COc1ccc(CCn2c(Br)nc3c2c(=O)[nH]c(=O)n3C)cc1 | 1080 nM
OC1CCCN(Cc2c3ccccc3cc3ccccc23)C1 (configuration not stated) | 8750 nM
O=C(N/N=C/c1ccc(Cl)cc1)c1cc(-c2cccnc2)nc2ccccc12 | 417 nM
Cc1cc(NC(=O)NC(=O)c2ccccc2NC(=O)C(C)N)ccc1Oc1ncc(Br)cn1 (configuration not stated) | 1060 nM
CCN(CC)c1ccc(/C=N/NC(=O)c2cnccn2)cc1 | 780 nM

SMILES | AC26
COc1ccc(NC(=O)c2ccc([N+](=O)[O-])o2)cc1 | 1020 nM
COc1cc(C(=O)OCCCN2CCCN(CCCOC(=O)c3cc(OC)c(OC)c(OC)c3)CC2)cc(OC)c1OC | 1550 nM
CC(C)(C)c1nnc2sc(SCC(=O)c3ccc4c(c3)OCCO4)nn2c1=O | 5230 nM
Cn1c(=O)[nH]c(=O)c2c1nc(N1CCN(Cc3ccccc3)CC1)n2CCCc1ccccc1 | 436 nM
CCOC(=O)Cc1csc(/N=C/c2c(O)n(-c3ccc(C)c(C)c3)c(=O)c3ccccc23)n1 | 2580 nM
c1ccc(-c2n[nH]c(-c3ccccc3)c2-c2nc3ccccc3[nH]2)cc1 | 4360 nM
COc1cc(-c2noc(C)c2/C=C/c2ccc(N)cc2)cc(OC)c1OC | 467 nM
c1ccc2c(c1)oc1c(-c3ccc4nccn4c3)cccc12 | 8270 nM
CCOC(=O)c1cc2[nH]c3ccccc3c2[n+](-c2ccc([N+](=O)[O-])cc2)c1N | 1930 nM
COc1ccc2c(c1)C(=O)N1[C@H]3c4cc(Br)ccc4OC[C@@H]3[C@H](c3ccccc3)[C@]1(C)C(=O)N2 | 851 nM
Cn1c(=O)n(C)c2cc(NS(=O)(=O)c3ccc(C(C)(C)C)cc3)ccc21 | 9340 nM
CC(=O)c1c(C)[nH]c(C(=O)Nc2nccs2)c1C | 2200 nM
C=CCNc1nc(Nc2ccc(OC)c(OC)c2)c2sc(-c3ccccc3)cc2n1 | 513 nM
COc1ccc(C=CC(=O)c2ccc3cc(OC)c(OC)cc3c2)cc1OC | 2860 nM
O=C(NCC1CCCO1)c1cc(-c2ccccc2)on1 (configuration not stated) | 6450 nM
Oc1ccc(C2=NNC(=NCc3ccc4c(c3)OCO4)SC2)c(O)c1 | 4890 nM
COC(=O)C1=C(c2cc3ccccc3o2)C[C@@H]2CC[C@H]1N2C(=O)N1CCOCC1 | > 19500 nM (inactive)
Cc1cc(C)nc(SC2=CS(=O)(=O)c3ccccc32)n1 | 4210 nM
COc1cc(F)ccc1-c1csc(C(NC(C)=O)c2ccc(F)c(F)c2)n1 (configuration not stated) | 681 nM
COc1cccc(C(=O)Nc2ccc(N3CCN(C(=O)c4ccco4)CC3)cc2)c1 | 10700 nM
O=C(CSc1c2c(nc3ccc(Cl)cc13)CCCC2)N1CCN(C(=O)c2ccco2)CC1 | 7690 nM
CCOC(=O)C(CC)(CC)C(=O)/C=C/c1cccc(Br)c1 | 517 nM

SMILES | AC26
Cc1ccc(N2C(=O)NC(=O)/C(=C\C=C\c3ccco3)C2=O)cc1C | 875 nM
COc1cc2c(C(=O)N3CCN(c4cccc(Cl)c4)CC3)cn(C)c(=O)c2cc1OC | 3400 nM
O=C(N/N=C/c1ccc(Cl)cc1)c1sccc1OCc1ccc(F)cc1 | 83.6 nM
O=c1[nH]c(=O)n(C2CC(O)C(CO)O2)cc1Br (configuration not stated) | 1490 nM
COc1ccc2c(c1)C(=O)N1[C@H]3c4cc(C)ccc4OC[C@@H]3[C@H](c3ccccc3)[C@]1(C)C(=O)N2 | 358 nM
COc1cc2[nH]c(C(=O)Nc3ccc(F)cc3)cc2c(OC)c1OC | 742 nM
O=C(/C=C/c1ccc(-c2ccccc2[N+](=O)[O-])o1)c1ccc(Br)cc1 | 4780 nM
Cc1nnc2c(NC(C)C)nc3ccccc3n12 | 4090 nM
COc1ccc(C(=O)NC(=C(Cl)Cl)S(=O)(=O)c2ccc(C)cc2)cc1 | 10200 nM
OCCCN=c1cc(-c2ccccc2)oc2ccc(Cl)cc12 | 978 nM
O=C1N[C@H]2CC=C[C@H]2N(Cc2cccs2)c2ccccc21 | 895 nM
O=C(NCCc1ccccc1)c1cc(-c2ccco2)on1 | 3780 nM
CCn1c(=O)cc(SCC(=O)NCCCN2CCN(c3ccc(F)cc3)CC2)c2ccccc21 | 9830 nM
COc1cccc(-c2nn(-c3ccccc3)cc2/C=C\C(=O)c2cccs2)c1 | 1360 nM
COc1ccc(Nc2nc3cc(-c4sccc4C)sc3c(=O)n2C)cc1OC | 477 nM
COc1ccc(-n2c(=S)[nH]c3cc(C(=O)Nc4ccc(F)cc4)ccc3c2=O)c(OC)c1 | 4550 nM
COc1ccc2nc(SCC(=O)NC3CCCC3)c(C)cc2c1 | 10200 nM
O=C(Nc1ccc(S(=O)(=O)N2CCOCC2)cc1)c1cc(-c2cc(Cl)ccc2O)n[nH]1 | 1260 nM
COc1cccc(N2CCN(C(=O)c3ccc(CS(=O)c4ccc(Cl)cc4)o3)CC2)c1 (configuration not stated) | 234 nM
Cc1nc([N+](=O)[O-])c(Sc2nc3ccccc3[nH]2)n1Cc1ccccc1 | 8510 nM
COCCCNC(=O)c1sc2ncn(CC(=O)Nc3ccc(C)c(Cl)c3)c(=O)c2c1C | 1380 nM
Cc1[nH]c(C)c(C(=O)/C=C/c2ccc([N+](=O)[O-])cc2)c1C | 633 nM

SMILES | AC26
COc1ccc2[nH]c(C(=O)N3CCN(Cc4ccccc4)CC3)cc2c1OC | 1130 nM
COc1ccc(C2(CNC(=O)c3cc(OC)c(OC)c(OC)c3)CCCC2)cc1OC | 3140 nM
CC(=O)c1cccc(-c2ccnc3c2CC(C(=O)NCc2ccccc2)O3)c1 (configuration not stated) | 657 nM
O=C(NCCc1ccccc1)C1c2ccccc2C(=O)N1Cc1cccs1 (configuration not stated) | 2690 nM
O=C(N/N=C/c1cccnc1)c1cc(-c2ccccc2OCc2ccccc2)n[nH]1 | 1890 nM
O=C(NCCCN1CCOCC1)c1cc(-c2ccc(F)cc2)on1 | 14000 nM
Cc1cc(C)c(S(=O)(=O)N(C)CC(=O)N2CCCC2)c(C)c1 | 2910 nM
O=C(O)CCC/C=C\C[C@@H]1[C@@H](/C=C/[C@@H](O)COc2cccc(Cl)c2)[C@H](O)C[C@@H]1O | < 1.2 nM
O=C(NCCc1ccc(F)cc1)c1coc(=O)c(Br)c1 | 413 nM
C(=C\c1nccc2c1[nH]c1ccccc12)/c1ccccc1 | 4680 nM
Nc1nc(=S)c2ncn([C@@H]3O[C@H](CO)[C@@H](O)[C@H]3O)c2[nH]1 | 368 nM
COc1ccc(CNC(=O)c2cccc3c(-c4cccnc4)coc23)cc1OC | 2690 nM
O=C(CCl)N1CCCC1c1ccc2c(c1)OCCO2 (configuration not stated) | 608 nM
CCN(CC)c1ccc(/C=N/n2nnnc2N)c(O)c1 | 3410 nM
COCCCNC(=O)c1ccc(-c2c(C)noc2C)c2ccoc12 | 4060 nM
O=c1c2c3c(sc2ncn1/N=C/c1ccc([N+](=O)[O-])o1)CCCC3 | 447 nM
O=C1NC[C@H](Cc2ccccc2)N(C[C@H]2CCCN2C[C@H](Cc2ccccc2)N2C[C@H](Cc3ccc(O)cc3)N(CCc3ccccc3)C(=O)C2=O)C1=O | 5790 nM
COc1cc(C(=O)Nc2cc(C(F)(F)F)ccc2N2CCOCC2)ccc1OCC(=O)N1CCOCC1 | 1820 nM
CCCCCCCCCCCCCCCCCCNc1ccn(C2OC(COP(=O)(O)OCC3OC(n4cc(F)c(=O)[nH]c4=O)CC3O)C(O)C2O)c(=O)n1 (configuration not stated) | 3970 nM

— PubChem BioAssay AID624491 (Broad Institute, 2012)
